Experimental data: patent US20230303483A1, “USE OF STROBILURIN TYPE COMPOUNDS FOR COMBATING PHYTOPATHOGENIC FUNGI CONTAINING AN AMINO ACID SUBSTITUTION F129L IN THE MITOCHONDRIAL CYTOCHROME B PROTEIN CONFERRING RESISTANCE TO QO […]” (BASF SE, priority 2020, published 2023)

Columns and labels:
[1] = tested on: Phakopsora pachyrhizi (strain containing the amino acid substitution F129L in the mitochondrial cytochrome b protein); test: Use example 1: protective control of soybean rust on soybeans (PHAKPA P2), inoculation 2 days after spraying; type: in vivo; details: % diseased leaf area on soybean, 16 ppm spray, inoculation 2 days after treatment, untreated controls usually >85 %
Method: (§1) The compound was dissolved in a mixture of acetone and/or dimethylsulfoxide and the wetting agent/emulsifier Wettol, which is based on ethoxylated alkylphenoles, in a ratio (volume) solvent-emulsifier of 99 to 1 to give a total volume of 5 ml. Subsequently, water was added to total volume of 100 ml. This stock solution was then diluted with the described solvent-emulsifier-water mixture to the final concentration given in the table below.
Use example 1. Protective control of soybean rust on soybeans caused by Phakopsora pachyrhizi (PHAKPA P2)
(§2) Leaves of potted soybean seedlings were sprayed to run-off with the previously described spray solution, containing the concentration of active ingredient or their mixture as described below. The plants were allowed to air-dry. The trial plants were cultivated for 2 days in a greenhouse chamber at 23-27° C. and a relative humidity between 60 and 80 %. Then the plants were inoculated with spores of Phakopsora pachyrhizi. The strain used contains the amino acid substitution F129L in the mitochondrial cytochrome b protein conferring resistance to Qo inhibitors. To ensure the success the artificial inoculation, the plants were transferred to a humid chamber with a relative humidity of about 95 % and 20 to 24° C. for 24 hr. The trial plants were cultivated for up to 14 days in a greenhouse chamber at 23 to 27° C. and a relative humidity between 60 and 80 %. The extent of fungal attack on the leaves was visually assessed as % diseased leaf area, the disease level of untreated controls was usually higher than 85 %.
(§3) All test results below are given for the control of phytopathogenic fungi containing the amino acid substitution F129L in the mitochondrial cytochrome b protein conferring resistance to Qo inhibitors.

[2] = tested on: Phakopsora pachyrhizi (strain containing the amino acid substitution F129L in the mitochondrial cytochrome b protein); test: Use example 2: protective control of soybean rust on soybeans (PHAKPA P6), inoculation six days after spraying; type: in vivo; details: % diseased leaf area on soybean, 16 ppm spray, inoculation six days after treatment, untreated controls usually >85 %
Method: as §1
Use example 2. Protective control of soybean rust on soybeans caused by Phakopsora pachyrhizi (PHAKPA P6)
as §2, with “active ingredient as described” for “active ingredient or their mixture as described”, “cultivated for six days in” for “cultivated for 2 days in”, “% and 23 to 27°” for “% and 20 to 24°”, “23 to 27° C. for” for “20 to 24° C. for”
as §3

Structure (SMILES) | PHAKPA Disease level (%) P2 at 16 ppm [1] [%] | PHAKPA Disease level (%) P6 at 16 ppm [2] [%]
CNC(=O)/C(=N/OC)c1cccc(C)c1CO/N=C(\C)C#Cc1ccccc1 [Example 16, (2E)-2-Methoxyimino-N-methyl-2-[3-methyl-2-[[(E)-(1-methyl-3-phenyl-prop-2-ynylidene)amino]oxymethyl]phenyl]acetamide] | 0 | 0
CNC(=O)/C(=N/OC)c1ccccc1CO/N=C(\C)C#Cc1ccccc1OC(F)(F)F [Example 9] | 0 | 5
CO/N=C(/C(=O)OC)c1cccc(C)c1CO/N=C(\C)C#Cc1ccc(F)cc1C(=O)OC [Example 125] | 17 | 45
CO/N=C(/C(=O)OC)c1ccccc1CO/N=C(\C)C#Cc1cccc(Cl)c1 [Example 71] | 20 | 17
CNC(=O)/C(=N/OC)c1ccccc1CO/N=C(\C)C#Cc1cccc(C)c1 [Example 58] | 2 | 4
CNC(=O)/C(=N/OC)c1ccccc1CO/N=C(\C)C#Cc1cccc(C(F)(F)F)c1 [Example 44] | 1 | 5
CNC(=O)/C(=N/OC)c1cccc(C)c1CO/N=C(\C)C#Cc1cccc(C)c1 [Example 57] | 0 | 0
CNC(=O)/C(=N/OC)c1ccccc1CO/N=C(\C)C#Cc1ccccc1C(F)(F)F [Example 69] | 1 | 2
CO/N=C(/C(=O)OC)c1ccccc1CO/N=C(\C)C#Cc1ccc(Oc2ccc(F)cc2)cc1 [Example 100] | 77 | 77
CO/N=C(/C(=O)OC)c1ccccc1CO/N=C(\C)C#Cc1c(C2CC2)cccc1C(F)(F)F [Example 108] | 90 | 87
CO/N=C(/C(=O)OC)c1cccc(C)c1CO/N=C(\C)C#Cc1cccc(Cl)c1 [Example 72] | 7 | 8
CO/N=C(/C(=O)OC)c1cccc(C)c1CO/N=C(\C)C#Cc1ccc(F)cc1C(=O)OC [Example 127] | 53 | 47
CO/N=C(/C(=O)OC)c1cccc(C)c1CO/N=C(\C)C#Cc1ccc(C)cc1 [Example 20] | 2 | 1
CNC(=O)/C(=N/OC)c1cccc(C)c1CO/N=C(\C)C#Cc1ccccc1OC(F)(F)F [Example 25] | 0 | 0
CO/N=C(/C(=O)OC)c1cccc(C)c1CO/N=C(\C)C#Cc1ccccc1OC(F)(F)F [Example 26] | 2 | 6
CO/N=C(/C(=O)OC)c1cccc(C)c1CO/N=C(\C)C#Cc1cccc(C)c1 [Example 42] | 3 | 6
CNC(=O)/C(=N/OC)c1cccc(C)c1CO/N=C(\C)C#Cc1cccc(Br)c1 [Example 29] | 1 | 0
CNC(=O)/C(=N/OC)c1ccccc1CO/N=C(\C)C#Cc1cccc(Cl)c1 [Example 73] | 1 | 0
CNC(=O)/C(=N/OC)c1ccccc1CO/N=C(\C)C#Cc1ccc2c(c1)OC(F)(F)O2 [Example 84] | 77 | 67
CNC(=O)/C(=N/OC)c1ccccc1CO/N=C(\C)C#Cc1ccc(Cl)cc1C(C)C [Example 110] | 0 | 2
CO/N=C(/C(=O)OC)c1ccccc1CO/N=C(\C)C#Cc1cccc2c1OC(F)(F)O2 [Example 103] | 28 | 22
CO/N=C(/C(=O)OC)c1ccccc1CO/N=C(\C)C#Cc1ccccc1F [Example 60] | 40 | 17
